Test results as given in PMC3828334, “Tumor Cell Death Mediated by Peptides That Recognize Branched Intermediates of DNA Replication and Repair” (PLoS ONE, 2013).
Positions of bridges follow the written chain, without caps; N, C: chain ends. Non-standard residues stand in square brackets, D forms with d. Residues, ends and D or L forms follow the SMILES beside them. Chains are numbered I, II in the order given.

Assays:
PC3 cells [1] = settings: 48 h
Procedure: 20,000 PC3 cells were plated overnight in 96 well plates (Costar) at a concentration of 200,000 cells/ml. They are treated with the peptides, doxorubicin, docetaxel alone, or in combination for different time period incubation and the cell viability was determined by MTT assay as described. The percentage survival of the cells with different treatments was calculated using DMSO-vehicle control-treated cells as the standard.

caspase-3 in PC3 cells = assay: Caspase-3 assay (Ac-DEVD-AFC cleavage); type: cell-based; settings: PC3, 50–200 µM, 12–48 h
Procedure: 400,000 PC3 cells were plated in a 6-well plate (BD Falcon) at a concentration of 200,000 cells/ml and were allowed to attach overnight at 37°C with 5% CO2 and treated with 50–200 µM wrwycr for 12, 24 or 48 h. The wrwycr-treated cell lysates were incubated with Ac-DEVD (Asp-Glu-Val-Asp)-AFC, a caspase-3 substrate, for 1 h. Activated caspase-3 will cleave between the DEVD and AFC, releasing latter, a fluorogenic compound that can be excited at 400 nm and the resulting emission can be read at 505 nm by the Spectra Max Gemini XS fluorometer plate reader using Softmax Pro version 3.1.2 software. The total protein concentration was calculated for each sample by using BioRad protein assay kit. To normalize the fluorescence reading (RFU) for each sample, the reading for each sample was divided by the corresponding protein concentration of the samples.

PC3 cells [2] = assay: TUNEL assay, PC3; type: cell-based; settings: PC3, 150 µM, 48 h
Procedure: (§1) 600,000 PC3 cells or 500,000 HeLa cells were plated in 60-mm dishes or 6-well plates respectively to allow them to attach overnight at 37°C with 5% CO2. PC3 cells were subsequently treated with appropriate treatments for 24, 36 and 48 h while HeLa cells were treated with 1 µl of either the caspase inhibitor z-VAD-fmk or z-FA-fmk (both from Biovision), containing appropriate treatments, for 24 h. The cells were fixed with 4% paraformaldehyde for 30 min and permeabilized with 0.1% Triton X-100 in 0.1% sodium citrate buffer for 3 mins. Labeled dUTP were added along with the terminal deoxynucleotidyl transferase dUTP nick end labeling (TUNEL) (TUNEL kit from Roche) as described in the kit. Samples were analyzed using a Becton Dickinson FACS Canto flow cytometer as specified above.

HeLa cells = assay: TUNEL assay, HeLa, with z-VAD-fmk or z-FA-fmk; type: cell-based; settings: 24 h
Procedure: as §1

[3] = system: Htog1 cells (variant of HeLa cells); assay: Cytochrome C release / TMRE assay for apoptosis; type: cell-based; settings: 24 h, confocal microscopy
Procedure: 200,000 Htog1 cells (variant of HeLa cells, a generous gift from Drs. Terrence Frey and Maria Guo) were seeded on cover slips mounted on 35 mm microwell petri dishes (Mattek Corp, Ashland, MA) with DMEM supplemented with 10% FBS and allowed to attach overnight at 37°C in 5% CO2. The media was replaced with 1 ml of the appropriate treatment and incubated for 24 h. After 23 h of treatment, 50 µM tetramethyl rhodamine ethyl ester perchlorate (TMRE) solution was added to each well (final concentration 50 nM) and incubated for the remaining hour. Cytochrome C release and loss of TMRE staining were determined in Z-series images acquired using a Leica TCS SP2 inverted confocal microscope. GFP was excited using 488 nm wavelength from an Ar/Kr laser attenuated to 33%, and the emitted fluorescence detected at 497–553 nm. TMRE fluorescence was excited using a 543 nm wavelength from an Ar/Kr laser attenuated to 35%, and the emitted fluorescence detected at 555–620 nm. Each cell was analyzed for release of GFP (GFP channel), loss of mitochondrial membrane potential (TMRE loss) or morphological abnormalities associated with apoptosis, and the % cells positive for each hallmark was calculated for the various treatments.

53BP1 in PC3 cells = assay: 53BP1 foci by fluorescence microscopy; type: cell-based; settings: PC3, 48 h
Procedure: 200,000 PC3 cells were plated on cover-slips (Fisherbrand) mounted on each well of the 12-well dishes and allowed to attach overnight at 37°C incubator with 5% CO2. The cells were treated with 50, 100, 150, or 200 µM of wrwycr, or 1, 5, 10, 25, or 50 µM of wrwyrggrywrw for 48 h. […] The samples were probed with 1∶500 diluted mouse anti-γH2AX antibody (Millipore) or 1∶1000 diluted rabbit anti-53BP1 (Novus-Biologicals) with overnight incubation followed by Dylight anti-mouse or anti-rabbit secondary antibodies (Biolegend) respectively. DAPI (5 µg/ml) was used to stain the nucleus. The stained cells on the coverslips were mounted on the glass slides and observed with a Zeiss inverted microscope with AxioVision 4.8 software and using the 100× magnification. Foci of 53BP1 were counted manually and the average number of foci per cell was calculated.

[4] = system: GRP78 promoter in HeLa cells; assay: Luciferase reporter assay for ER stress; type: cell-based; settings: 24 h
Procedure: HeLa cells were transfected with either either 15 µg of plasmid DJT208, carrying the GRP78 promoter (pGRP78) driving the ER-stress response elements ERSE 1, ERSE 2 and ERSE 3 upstream of the luciferase gene, or 15 µg of the plasmid GL2P, carrying the luciferase gene driven by the SV40 promoter (pSV40). All cells were also co-transfected with 10 µg of the PB1 plasmid, carrying the β-galactosidase reporter transcribed by the SV40 promoter, as a transfection control. [The plasmids were generous gifts from Dr. Peter Belmont from Christopher Glembotski's Lab in SDSU]. After 24 h the cells were treated with increasing concentrations of wrwycr (100, 150 and 200 µM) for 24 h and the luciferase activity was measured using an OptocompII Luminometer. Tunicamycin (TM), a known inducer of ER stress, was used as a positive control for the experiment ER stress was calculated as the fold increase of luciferase gene expression from the GRP78 promoter over that from the SV40 promoter of pGL2P for the different concentrations of the peptide over DMSO, which is the solvent for the peptide, or over the media in the case of TM.

[5] = system: U2OS cell lines vs IMR 90 cells; settings: cited from earlier work
From the text: A major challenge of cancer treatment is drug delivery. The intact cell membrane protects the cellular components from its surroundings, restricting hydrophilic molecules from entering the cell and allowing only small molecules to cross the membrane. The presence of hydrophobic and basic amino acid residues in peptide wrwycr probably helps it cross the cancer cell membrane more efficiently than normal cells, similar to the cell penetrating peptides (CPPs).

IC50 (PC3 cells [1]): 100 µM
SMILES: N=C(N)NCCC[C@@H](NC(=O)[C@@H](CSSC[C@@H](NC(=O)[C@@H](Cc1ccc(O)cc1)NC(=O)[C@@H](Cc1c[nH]c2ccccc12)NC(=O)[C@@H](CCCNC(=N)N)NC(=O)[C@H](N)Cc1c[nH]c2ccccc12)C(=O)N[C@H](CCCNC(=N)N)C(N)=O)NC(=O)[C@@H](Cc1ccc(O)cc1)NC(=O)[C@@H](Cc1c[nH]c2ccccc12)NC(=O)[C@@H](CCCNC(=N)N)NC(=O)[C@H](N)Cc1c[nH]c2ccccc12)C(N)=O [wrwycr, Trp-Arg-Trp-Tyr-Cys-Arg] (I: H-[dW][dR][dW][dY][dC][dR]-NH2 / II: H-[dW][dR][dW][dY][dC][dR]-NH2; disulfide I:5-II:5; N-terminus assumed)
caspase-3 activation compared to DMSO control (caspase-3 in PC3 cells): no significant activation of caspase-3 | TUNEL positive cell population (PC3 cells [2]): 65% | TUNEL-positive cells (HeLa cells; 100 µM wrwycr): 13% | TUNEL positive cells with caspase inhibitor z-VAD-fmk versus mock inhibitor z-FA-fmk (HeLa cells): No significant difference | cytochrome C release or loss of TMRE [3]: little or no cytochrome C release or loss of TMRE | accumulation of 53BP1 foci (53BP1 in PC3 cells): accumulation of 53BP1 protein in a dose-dependent manner | pGRP78/pSV40 ([4]; 100 µM, ER stress as fold increase GRP78 promoter over SV40 promoter): 0.84±0.1 | pGRP78/pSV40 ([4]; 150 µM): 1.02±0.44 | pGRP78/pSV40 ([4]; 200 µM): 0.87±0.06 | induction of expression of the GRP78 promoter ([4]; 100–200 µM): did not induce expression of the GRP78 promoter | uptake in U2OS cell lines relative to non-tumor derived IMR 90 cells [5]: 3 ×
